Results: PubChem BioAssay (NCI)
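These data come from cells grown in 96-well plates and exposed to compound for 48 hours at five concentrations. The concentration for full growth arrest is given as TGI.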

Columns and labels:
Assay in all cases: NCI-60 cell line screen, 48 h
[1] = test system: TK-10 renal
[2] = test system: 786-0 renal
[3] = test system: SR leukemia
[4] = test system: M14 melanoma
[5] = test system: SK-OV-3 ovarian
[6] = test system: KM12 colon
[7] = test system: NCI-H522 lung
[8] = test system: RPMI-8226 leukemia
[9] = test system: HL-60(TB) leukemia
[10] = test system: UACC-257 melanoma
[11] = test system: UO-31 renal
[12] = test system: K-562 leukemia
[13] = test system: HCC-2998 colon
[14] = test system: SK-MEL-5 melanoma
[15] = test system: A549 NSCLC
[16] = test system: HOP-92 NSCLC
[17] = test system: NCI/ADR-RES ovarian
[18] = test system: CAKI-1 renal
[19] = test system: OVCAR-3 ovarian
[20] = test system: NCI-H460 lung
[21] = test system: OVCAR-4 ovarian
[22] = test system: DU-145 prostate
[23] = test system: SNB-75 CNS
[24] = test system: A498 renal
[25] = test system: OVCAR-8 ovarian
[26] = test system: SF-268 CNS
[27] = test system: RXF 393 renal
[28] = test system: SF-539 CNS
[29] = test system: EKVX NSCLC
[30] = test system: MDA-MB-231 breast
[31] = test system: CCRF-CEM leukemia
[32] = test system: SF-295 CNS
[33] = test system: HCT-15 colon
[34] = test system: ACHN renal
[35] = test system: IGROV1 ovarian
[36] = test system: HOP-62 NSCLC
[37] = test system: SK-MEL-28 melanoma
[38] = test system: COLO 205 colon
[39] = test system: MDA-N
[40] = test system: SNB-19 CNS
[41] = test system: U251 CNS
[42] = test system: NCI-H226 lung
[43] = test system: HT29 colon
[44] = test system: SK-MEL-2 melanoma
[45] = test system: MALME-3M melanoma
[46] = test system: HS 578T breast
[47] = test system: SN12C renal
[48] = test system: T-47D breast
[49] = test system: PC-3 prostate
[50] = test system: MCF7 breast
[51] = test system: SW-620 colon
[52] = test system: HCT-116 colon
[53] = test system: BT-549 breast
[54] = test system: MDA-MB-435
[55] = test system: UACC-62 melanoma
[56] = test system: LOX IMVI melanoma
[57] = test system: NCI-H23 lung
[58] = test system: OVCAR-5 ovarian
[59] = test system: MOLT-4 leukemia

`Cc1ccc(N2CN3OC(=O)N(c4ccccc4)[C@@]3(c3ccccc3)C2)cc1` showed a TGI [1] of over 100 µM, a TGI [2] of over 100 µM and a TGI [3] of over 100 µM. It also gave a TGI [4] of over 100 µM, a TGI [5] of over 100 µM and a TGI [6] of over 100 µM. For the same compound, the TGI [7] was over 100 µM, the TGI [8] was over 100 µM and the TGI [9] was over 100 µM. It also gave a TGI [10] of over 100 µM, a TGI [11] of over 100 µM and a TGI [12] of over 100 µM. The TGI [13] was over 100 µM, the TGI [14] was over 100 µM and the TGI [15] was over 100 µM. For the same compound, the TGI [16] was over 100 µM, the TGI [17] was over 100 µM and the TGI [18] was over 100 µM. It also gave a TGI [19] of over 100 µM, a TGI [20] of over 100 µM and a TGI [21] of over 100 µM. It also gave a TGI [22] of over 100 µM, a TGI [23] of over 100 µM and a TGI [24] of over 100 µM. The TGI [25] was over 100 µM, the TGI [26] was over 100 µM and the TGI [27] was over 100 µM. The TGI [28] was over 100 µM, the TGI [29] was over 100 µM and the TGI [30] was over 100 µM. The TGI [31] was over 100 µM, the TGI [32] was over 100 µM and the TGI [33] was over 100 µM. The TGI [34] was over 100 µM, the TGI [35] was over 100 µM and the TGI [36] was over 100 µM. For the same compound, the TGI [37] was over 100 µM, the TGI [38] was over 100 µM and the TGI [39] was over 100 µM. For the same compound, the TGI [40] was over 100 µM, the TGI [41] was over 100 µM and the TGI [42] was over 100 µM. For the same compound, the TGI [43] was over 100 µM, the TGI [44] was over 100 µM and the TGI [45] was over 100 µM. For the same compound, the TGI [46] was over 100 µM, the TGI [47] was over 100 µM and the TGI [48] was 88.1 µM. The TGI [49] was over 100 µM, the TGI [50] was over 100 µM and the TGI [51] was over 100 µM. For the same compound, the TGI [52] was over 100 µM, the TGI [53] was over 100 µM and the TGI [54] was over 100 µM. For the same compound, the TGI [55] was over 100 µM, the TGI [56] was over 100 µM and the TGI [57] was over 100 µM. The TGI [58] was over 100 µM and the TGI [59] was over 100 µM.

`CC1(C)[C@@H]2CC[C@@]1(C)C1(SS1=O)C21Cc2ccccc2C1` (some centres not stated) showed a TGI [1] of 38.7 µM, a TGI [2] of 31.3 µM and a TGI [3] of 54.5 µM. The TGI [4] was over 100 µM, the TGI [5] was over 100 µM and the TGI [6] was over 100 µM. It also gave a TGI [7] of 30.8 µM, a TGI [8] of 50.5 µM and a TGI [9] of 42.5 µM. The TGI [10] was 55.9 µM, the TGI [11] was 35.8 µM and the TGI [12] was 51.6 µM. It also gave a TGI [13] of 36.9 µM, a TGI [15] of over 100 µM and a TGI [16] of 67.5 µM. It also gave a TGI [17] of 67.5 µM, a TGI [18] of 45.6 µM and a TGI [19] of over 100 µM. The TGI [20] was 52.2 µM, the TGI [21] was 32 µM and the TGI [22] was 45.4 µM. For the same compound, the TGI [23] was over 100 µM, the TGI [24] was 97.3 µM and the TGI [25] was 31 µM. The TGI [26] was over 100 µM, the TGI [27] was 38.9 µM and the TGI [28] was 72.3 µM. It also gave a TGI [29] of 73 µM, a TGI [30] of 34.9 µM and a TGI [31] of 36.3 µM. For the same compound, the TGI [32] was over 100 µM, the TGI [33] was 63.7 µM and the TGI [34] was 45.5 µM. For the same compound, the TGI [35] was 37.2 µM, the TGI [36] was over 100 µM and the TGI [37] was 54 µM. For the same compound, the TGI [38] was 99 µM, the TGI [39] was 35.5 µM and the TGI [40] was over 100 µM. The TGI [41] was 84.5 µM, the TGI [42] was over 100 µM and the TGI [43] was 40.9 µM. It also gave a TGI [44] of 60.5 µM, a TGI [45] of over 100 µM and a TGI [46] of over 100 µM. For the same compound, the TGI [47] was 35.8 µM, the TGI [48] was 70.3 µM and the TGI [49] was 41.7 µM. For the same compound, the TGI [50] was 63.9 µM, the TGI [51] was 36.1 µM and the TGI [52] was 28.5 µM. The TGI [53] was 85.9 µM, the TGI [54] was 99 µM and the TGI [55] was 70 µM. The TGI [56] was 28.5 µM, the TGI [57] was over 100 µM and the TGI [58] was 45.7 µM. For the same compound, the TGI [59] was 58.4 µM.
